Results published in patent publication US20230232837A1, “NOVEL FORMULATIONS FOR INCREASING THE GERMINATION RATE OF FUNGAL SPORES” (priority 2020, published 2023).

Tests used:
[1] = test system: Trichoderma atroviride strain T1; assay: Germination rate after air-drying with protectants, strain T1; format: cell-based; details: after air-drying at room temperature overnight; material:spore 1:1, lecithin 1:10
Method: (§1) The spores of Trichoderma strains T1 and B35 were prepared by Solid State Fermentation (SSF) and harvested, then centrifuged to form a spore paste. T1 is used here as an abbreviation for Trichoderma atroviride strain T1 with a culture collection No. I123-7 (French collection), while B35 is used here as an abbreviation for Trichoderma asperellum strain B35, deposited in the German Culture collection under the No. DSM33245.
(§2) For the air-drying experiments (explained further below), in order to get a protectant-to-spore mass ratio of 1:1 (except for lecithin), 12 g of the spore paste was mixed with 3 g of the protectant in order to get a total of 15 g. The spore concentration in the paste is about 25%, which makes then 3 g of spore in contact with 3 g of protectant. The mixture of protectants and paste were mixed for 5 min and 3400 rpm using an Ultra-Turrax equipment (IKA T25). In case of the test for lecithin, 1.5 g of a 20% lecithin solution was added to 13.5 g of spore paste, then mixed according to the afore-mentioned procedure (5 min, 3400 rpm). After mixing, the mixture was poured into a tray and dried at room temperature overnight.
(§3) Germination rates were measured according to the following protocol: The sample with the spores is dispersed in sterile tap water to get a homogenous spore solution. Depending on the initial spore concentration, the sample may need to be diluted up to 1E+07 spores/mL. This dilution then is spread on agar plates (often, 100 μl of dilution spread on a Potato Dextrose Agar plate) with a sterile Drigalski spatula. Depending on the strain type, the plates are incubated at a certain temperature (for example 20° C. for Trichoderma used here) for some time (here 19-24 hours is used) to allow time for germination and forming hyphae. Subsequently, the spores on the plates are analyzed under the microscope in 8 to 10 randomly chosen areas. At least 200 germinated and non-germinated spores are counted. The viability (%) is calculated by 100 times the number of germinated spores to the total spores counted.
(§4) A test was conducted to compare lecithin against other known microbial stabilizers and protectant materials. These materials include different sugars, proteins, skim milk powder, and others. Initially, an air-drying technique in room temperature was used.
(§5) After the spores were air dried with different protectants at room temperature overnight, the germination rate and total dry matter content (DMC, which is a way of expressing total moisture content) of the samples were analyzed.

[2] = test system: Trichoderma asperellum strain B35; assay: Germination rate after air-drying with protectants, strain B35; format: cell-based; details: after air-drying at room temperature overnight; material:spore 1:1, lecithin 1:10
Method: as §1, §2, §3, §4, §5

[3] = Dry matter content / residual moisture by heating balance; format: physicochemical; details: dry matter content after air-drying; for DMC (%) B35: strain B35; for DMC (%) T1: strain T1
Method: For all experiments conducted, dry matter content (as related to total moisture content) was measured by a heating balance apparatus (Sartorius MA 160).
as §5

Row | Molecule | Germination rate (%) T1 [1] | Germination rate (%) B35 [2] | DMC (%) B35 [3] [%] | DMC (%) T1 [3] [%]
1 | OC[C@@H](O)[C@H](O)[C@H](O)[C@@H](O)CO [Ducitol/Galactitol] | not soluble | not soluble | – | –
2 | OC[C@@H](O)[C@@H](O)[C@H](O)[C@H](O)CO [Mannitol] | 69.95% | 51.40% | 94.88 | 97.01
3 | O[C@H]1[C@H](O)[C@@H](O)[C@H](O)[C@@H](O)[C@H]1O [Myo-Inositol] | 65.03% | 59.05% | 95.59 | 96.6
4 | OC[C@@H](O)[C@@H](O)[C@H](O)[C@@H](O)CO [Sorbitol/Glucitol] | – | 13.00% | 93.99 | –
5 | OC[C@H]1O[C@@](CO)(O[C@H]2O[C@H](CO)[C@@H](O)[C@H](O)[C@H]2O)[C@@H](O)[C@@H]1O [Sucrose] | – | 36.45% | 91.59 | –
6 | OC[C@H]1O[C@H](O[C@H]2O[C@H](CO)[C@@H](O)[C@H](O)[C@H]2O)[C@H](O)[C@@H](O)[C@@H]1O [Trehalose] | 68.75% | 43.18% | 91.84 | 90.35
7 | Chitosan | not soluble | not soluble | – | –
8 | Maltodextrin | 54.55% | 20.38% | 92.49 | 94.46
